Experimental findings from patent US9346813B2, “Substituted pyrrolo[2,3-d]pyrimindines as CDK9 kinase inhibitors” (AbbVie Inc., priority 2014, dated 2016) are described below.

Molecules are shown by their SMILES.

Experiment [1] addresses T1, CDK9/Cyclin T1 (Homo sapiens, UniProt P50750).
T1 construct: purchased Carna Biosciences 04-110
As to the kind of experiment: CDK9 enzyme protocol (LANCE ULight TR-FRET kinase assay). Format: biochemical. As to conditions: 4 nM CDK9/Cyclin T1, 1000 μM ATP, 100 nM U-light MBP peptide, 30 minutes. In a few lines: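 Human CDK9/Cyclin T1 (4 nM) phosphorylated 100 nM ULight-MBP peptide at 1000 μM ATP for 30 min in HEPES/MgCl2/Triton buffer. The reaction was stopped with 20 mM EDTA plus 0.5 nM Eu anti-phospho-MBP antibody and equilibrated 1 h. Read-out was TR-FRET (ex 320, em 615/665 nm).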
(In general: Time-resolved FRET reads energy transfer from a long-lived donor to a nearby acceptor.)

The subject of experiment [2] is H929 cells. Briefly: Cell viability assay in H929 cells (Cell TiterGlo). Type of experiment: cell-based. The settings on record: Homo sapiens, NCI-H929, 24 hours at 37° C. In a few lines:
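Cells seeded at 10,000 (96-well) or 2500 (384-well) cells/well; A431 dosed after overnight attachment, H929 dosed at seeding. 3-fold dilutions from 10 μM to 0.0005 μM, 0.1% final DMSO. Viability read by Cell TiterGlo luminescence after 24 hours at 37° C.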
(In general: In ATP-based viability assays light output follows the ATP content of the culture.)

Experiment [3] has as its system A431 cells. As to the kind of experiment: Cell viability assay in A431 cells (Cell TiterGlo). Format: cell-based. The settings on record: Homo sapiens, A-431, 24 hours at 37° C. The method, then: Cell viability assays were performed using A431 or H929 cells. A431 cells were seeded in 96-well plates at 10,000 cells/well, and after overnight incubation, treated with compounds at 2-times the final concentration to result in a dose response of 3-fold dilutions from 10 μM to 0.0005 μM (50 μL/well, 0.1% final DMSO concentration). H929 cells were seeded in 96-well plates at 10,000 cells/well and treated immediately with compounds as described above. After 24 hours at 37° C., cell viability was measured using Cell TiterGlo reagent (Promega) with a luminescence reader. Alternately, cell viability assays were performed in 384-well format. A431 cells were seeded in 384-well plates at 2500 cells/well and, after overnight incubation, treated with compounds in a dose response of 3-fold dilutions from 10 μM to 0.0005 μM (25 nL/well, 0.1% final DMSO concentration). For the H929 viability assay, 25 nL/well of the compounds was dispensed into 384-well plates in a dose response as described above and cells were immediately seeded in 384-well plates at 2500 cells/well. After 24 hours at 37° C., cell viability was measured using Cell TiterGlo reagent (Promega) with a luminescence reader.

T1 sequence (P50750 whole entry): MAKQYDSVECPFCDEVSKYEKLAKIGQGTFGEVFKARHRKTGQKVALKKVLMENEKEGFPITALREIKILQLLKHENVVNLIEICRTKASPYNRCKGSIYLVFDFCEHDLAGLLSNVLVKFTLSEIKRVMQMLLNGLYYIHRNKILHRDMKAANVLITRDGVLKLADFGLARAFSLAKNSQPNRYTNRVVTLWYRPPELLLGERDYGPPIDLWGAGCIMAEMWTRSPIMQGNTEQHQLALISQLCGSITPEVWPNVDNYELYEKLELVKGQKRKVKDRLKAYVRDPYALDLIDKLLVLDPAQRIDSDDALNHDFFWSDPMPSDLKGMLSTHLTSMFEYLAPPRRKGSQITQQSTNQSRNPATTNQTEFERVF
T1 sequence (O60563 whole entry partner): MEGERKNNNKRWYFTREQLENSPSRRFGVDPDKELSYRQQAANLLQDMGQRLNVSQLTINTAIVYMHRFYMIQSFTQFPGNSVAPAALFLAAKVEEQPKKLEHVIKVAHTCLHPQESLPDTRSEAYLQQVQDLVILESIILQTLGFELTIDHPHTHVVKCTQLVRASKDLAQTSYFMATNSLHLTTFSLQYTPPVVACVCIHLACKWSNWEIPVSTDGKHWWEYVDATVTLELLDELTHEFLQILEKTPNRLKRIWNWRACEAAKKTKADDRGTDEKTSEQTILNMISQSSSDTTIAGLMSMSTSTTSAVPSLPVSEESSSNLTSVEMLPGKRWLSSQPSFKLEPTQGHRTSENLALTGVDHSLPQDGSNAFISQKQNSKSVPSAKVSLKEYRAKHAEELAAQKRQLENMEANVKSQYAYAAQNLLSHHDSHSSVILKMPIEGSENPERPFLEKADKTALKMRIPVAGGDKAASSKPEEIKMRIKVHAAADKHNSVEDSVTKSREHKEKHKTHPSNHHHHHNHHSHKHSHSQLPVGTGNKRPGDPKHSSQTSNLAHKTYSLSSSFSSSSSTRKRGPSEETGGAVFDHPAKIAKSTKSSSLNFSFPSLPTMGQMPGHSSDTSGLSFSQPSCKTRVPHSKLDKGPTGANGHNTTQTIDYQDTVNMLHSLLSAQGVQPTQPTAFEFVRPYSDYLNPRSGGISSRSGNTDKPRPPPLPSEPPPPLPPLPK

As usually defined, the IC50 is the concentration needed to halve the response being measured. Low values mean inhibition by little substance, high ones a need for much substance. The EC50 is the concentration at which the effect is half-maximal. Turning to `COc1ccc(F)cc1-c1ncnc2[nH]c(C3=CCN(Cc4ccc(C(=O)O)cc4)CC3)cc12` [Example 72, 4-({4-[4-(5-fluoro-2-methoxyphenyl)-7H-pyrrolo[2,3-d]pyrimidin-6-yl]-3,6-dihydropyridin-1(2H)-yl}methyl)benzoic acid], the half-inhibitory concentration (IC50) in experiment [1] amounted to 110 nM. Moreover, the 50% effective concentration (EC50) in experiment [2] came out at 2400 nM; in experiment [3] it was 5200 nM.
As for `COc1ccc(F)cc1-c1ncnc2[nH]c(C3=CCN(Cc4ccc(NS(C)(=O)=O)cc4)CC3)cc12` [Example 81, N-[4-({4-[4-(5-fluoro-2-methoxyphenyl)-7H-pyrrolo[2,3-d]pyrimidin-6-yl]-3,6-dihydropyridin-1(2H)-yl}methyl)phenyl]methanesulfonamide], in experiment [1], the IC50 amounted to 75 nM. The half-maximal effective concentration (EC50) was 100 nM in experiment [2] and 110 nM in experiment [3].
Turning to `COc1ccc(F)cc1-c1ncnc2[nH]c(C3=CCN(CC(=O)N(C)C)CC3)cc12` [Example 80, 2-{4-[4-(5-fluoro-2-methoxyphenyl)-7H-pyrrolo[2,3-d]pyrimidin-6-yl]-3,6-dihydropyridin-1(2H)-yl}-N,N-dimethylacetamide], the half-maximal effective concentration (EC50) came out at 120 nM in experiment [2] and 130 nM in experiment [3].
With `COc1ccc(F)cc1-c1ncnc2[nH]c(C3=CCN(C(=O)CO)CC3)cc12` [Example 7, 1-{4-[4-(5-fluoro-2-methoxyphenyl)-7H-pyrrolo[2,3-d]pyrimidin-6-yl]-3,6-dihydropyridin-1(2H)-yl}-2-hydroxyethanone], inhibition in experiment [1] was half-maximal at 37 nM (IC50). Further, the EC50 in experiment [2] was 180 nM; in experiment [3], 150 nM.
The compound `Fc1ccc(NCc2ccccc2)cc1-c1ncnc2[nH]c(C3CCNCC3)cc12` [Example 9, N-benzyl-4-fluoro-3-[6-(piperidin-4-yl)-7H-pyrrolo[2,3-d]pyrimidin-4-yl]aniline] registered an IC50 in experiment [1] of 72 nM. This compound also had a 50% effective concentration (EC50) in experiment [3] of 120 nM.
For the compound `COc1ccc(F)cc1-c1ncnc2[nH]c(C3=CCNCC3)cc12` [Example 3, 4-(5-fluoro-2-methoxyphenyl)-6-(1,2,3,6-tetrahydropyridin-4-yl)-7H-pyrrolo[2,3-d]pyrimidine], the half-maximal effective concentration (EC50) in experiment [2] came to 200 nM; in experiment [3], 32 nM.
`COc1ccc(F)cc1-c1ncnc2[nH]c(C3=CCN(S(=O)(=O)C(F)(F)F)CC3)cc12` [Example 40, 4-(5-fluoro-2-methoxyphenyl)-6-{1-[(trifluoromethyl)sulfonyl]-1,2,3,6-tetrahydropyridin-4-yl}-7H-pyrrolo[2,3-d]pyrimidine]: in experiment [1], 150 nM corresponded to half-maximal inhibition (IC50). Besides, the EC50 in experiment [2] stood at 669 nM.
In experiment [1], `CNC(=O)N1CC=C(c2cc3c(-c4cc(F)ccc4OC)ncnc3[nH]2)CC1` [Example 17, 4-[4-(5-fluoro-2-methoxyphenyl)-7H-pyrrolo[2,3-d]pyrimidin-6-yl]-N-methyl-3,6-dihydropyridine-1(2H)-carboxamide] came in with an IC50 of 120 nM. Further, the EC50 in experiment [2] was 200 nM; in experiment [3], 260 nM.
The compound `COc1ccc(F)cc1-c1ncnc2[nH]c(C3=CCN(CC4CCCO4)CC3)cc12` (stereo not shown) [Example 24, 4-(5-fluoro-2-methoxyphenyl)-6-[1-(tetrahydrofuran-2-ylmethyl)-1,2,3,6-tetrahydropyridin-4-yl]-7H-pyrrolo[2,3-d]pyrimidine] yielded a half-maximal inhibitory concentration (IC50) in experiment [1] of 100 nM. Besides, in experiment [2], the EC50 was found to be 250 nM.
The corresponding values for `COc1ccc(F)cc1-c1ncnc2[nH]c(C3=CCN(Cc4ccnc(C(F)(F)F)c4)CC3)cc12` [Example 28, 4-(5-fluoro-2-methoxyphenyl)-6-(1-{[2-(trifluoromethyl)pyridin-4-yl]methyl}-1,2,3,6-tetrahydropyridin-4-yl)-7H-pyrrolo[2,3-d]pyrimidine] are 220 nM and 1000 nM.
On to `COc1ccc(F)cc1-c1ncnc2[nH]c(C3CCNCC3)cc12` [Example 1, 4-(5-fluoro-2-methoxyphenyl)-6-(piperidin-4-yl)-7H-pyrrolo[2,3-d]pyrimidine], for which, in experiment [1], half-maximal inhibition (IC50) was put at 52 nM. In experiment [3], this compound displayed a concentration for a half-maximal effect (EC50) of 100 nM.
Compound `CS(=O)(=O)N1CC=C(c2cc3c(-c4cc(NCC5CCCO5)ccc4F)ncnc3[nH]2)CC1` (stereo not shown) [Example 32, 4-fluoro-3-{6-[1-(methylsulfonyl)-1,2,3,6-tetrahydropyridin-4-yl]-7H-pyrrolo[2,3-d]pyrimidin-4-yl}-N-(tetrahydrofuran-2-ylmethyl)aniline] yielded an IC50 in experiment [1] of 260 nM. Further, the midpoint of the response in experiment [2], the EC50, lay at 3600 nM.
